# Laboratory results as given in patent US20190231751A1, “TREATMENT OF FIBROTIC DISORDERS WITH JUN N-TERMINAL KINASE INHIBITORS” (Imago Pharmaceuticals, Inc., priority 2016, published 2019).
# Legend:
# Format in all cases: biochemical
# JNK3 = JNK3 (Homo sapiens, UniProt P53779); experiment: In vitro JNK3 inhibition (Table 1)
# Procedure: (§1) In vitro assays for the determination of JNK activities are known in the art and exemplary assay formats are described herein.
# (§2) IC50 values in Table 1 were determined using the procedures as described in U.S. Pat. No. 8,450,353.
# JNK1 = JNK1 (Homo sapiens, UniProt P45983); experiment: In vitro JNK1 inhibition (Table 1)
# JNK1, sequence (P45983 whole entry, species assumed): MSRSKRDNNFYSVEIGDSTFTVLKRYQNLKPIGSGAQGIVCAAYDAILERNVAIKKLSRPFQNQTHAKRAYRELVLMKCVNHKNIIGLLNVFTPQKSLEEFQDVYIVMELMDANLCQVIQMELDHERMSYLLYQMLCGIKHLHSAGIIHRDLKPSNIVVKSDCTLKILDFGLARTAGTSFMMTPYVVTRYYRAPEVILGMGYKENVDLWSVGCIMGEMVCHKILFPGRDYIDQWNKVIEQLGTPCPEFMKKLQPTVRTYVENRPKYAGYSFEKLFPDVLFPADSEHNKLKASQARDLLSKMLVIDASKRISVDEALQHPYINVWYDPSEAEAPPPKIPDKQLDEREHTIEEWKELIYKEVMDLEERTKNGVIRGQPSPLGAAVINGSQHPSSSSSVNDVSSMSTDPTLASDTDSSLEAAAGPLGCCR
# Procedure: as §1, §2
# JNK2 = JNK2 (Homo sapiens, UniProt P45984); experiment: In vitro JNK2 inhibition (Table 1)
# JNK2, sequence (P45984 whole entry, species assumed): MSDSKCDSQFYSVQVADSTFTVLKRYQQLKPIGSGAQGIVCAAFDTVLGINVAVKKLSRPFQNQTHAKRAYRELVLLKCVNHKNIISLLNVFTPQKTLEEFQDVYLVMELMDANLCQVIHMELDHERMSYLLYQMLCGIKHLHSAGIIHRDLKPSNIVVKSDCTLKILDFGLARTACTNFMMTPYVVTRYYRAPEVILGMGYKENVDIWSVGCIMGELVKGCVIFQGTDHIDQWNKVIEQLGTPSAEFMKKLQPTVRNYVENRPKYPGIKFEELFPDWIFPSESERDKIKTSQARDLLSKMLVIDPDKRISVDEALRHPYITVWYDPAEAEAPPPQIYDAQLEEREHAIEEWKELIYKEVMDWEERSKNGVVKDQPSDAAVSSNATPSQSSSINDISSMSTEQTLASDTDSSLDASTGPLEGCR
# Procedure: as §1, §2
# JNK3, sequence (P53779 whole entry, species assumed): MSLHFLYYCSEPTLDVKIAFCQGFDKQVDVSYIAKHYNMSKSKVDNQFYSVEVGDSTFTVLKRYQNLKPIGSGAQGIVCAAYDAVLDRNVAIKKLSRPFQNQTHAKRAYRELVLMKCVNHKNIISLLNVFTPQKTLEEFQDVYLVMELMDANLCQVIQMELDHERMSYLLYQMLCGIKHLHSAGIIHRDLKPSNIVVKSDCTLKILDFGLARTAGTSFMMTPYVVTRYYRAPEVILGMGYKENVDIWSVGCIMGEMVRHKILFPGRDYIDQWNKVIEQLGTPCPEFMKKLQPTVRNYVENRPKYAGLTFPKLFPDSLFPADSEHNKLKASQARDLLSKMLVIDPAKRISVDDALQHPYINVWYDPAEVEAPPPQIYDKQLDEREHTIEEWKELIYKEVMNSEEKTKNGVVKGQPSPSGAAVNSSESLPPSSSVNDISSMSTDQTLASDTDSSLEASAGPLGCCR
SMILES,IC50 (JNK3) [µM],IC50 (JNK1) [µM],IC50 (JNK2) [µM]
"O=C(Cn1c(=O)ccn2nccc12)Nc1scc(Cl)c1-c1ncn[nH]1 [N-(4-chloro-3-(1H-1,2,4-triazol-5-yl)thiophen-2-yl)-2-(5-oxopyrazolo[1,5-a]pyrimidin-4(5H)-yl)acetamide]",< 0.1,< 0.1,< 0.1
"Cc1n[nH]c(-c2c(Cl)csc2NC(=O)CN2C(=O)CCc3ncccc32)n1 [N-(4-chloro-3-(3-methyl-1H-1,2,4-triazol-5-yl)thiophen-2-yl)-2-(2-oxo-3,4-dihydro-1,5-naphthyridin-1(2H)-yl)acetamide]",< 0.1,< 0.1,< 0.1
"O=C(CN1C(=O)CCc2ncccc21)Nc1scc(Cl)c1-c1nccs1 [N-(4-chloro-3-(thiazol-2-yl)thiophen-2-yl)-2-(2-oxo-3,4-dihydro-1,5-naphthyridin-1(2H)-yl)acetamide]",< 0.1,< 0.1,< 0.1
"N#Cc1csc(NC(=O)Cn2c(=O)ccc3cc(C(F)(F)F)ccc32)c1-n1ccnn1 [N-(4-cyano-3-(1H-1,2,3-triazol-1-yl)thiophen-2-yl)-2-(2-oxo-6-triazol-1-yl)-4-cyanothiophen-2-yl)-2-(2-oxo-6-(trifluoromethyl)quinolin-1(2H)-yl)acetamide]",0.1 to 10,0.1 to 10,0.1 to 10
"N#Cc1csc(NC(=O)Cn2c(=O)ccc3cc(C(F)(F)F)ccc32)c1-n1nccn1 [N-(4-cyano-3-(2H-1,2,3-triazol-2-yl)thiophen-2-yl)-2-(2-oxo-6-(trifluoromethyl)quinolin-1(2H)-yl)acetamide]",< 0.1,< 0.1,< 0.1
N#Cc1csc(NC(=O)Cn2c(=O)ccc3cc(C(F)(F)F)ccc32)c1-c1ncco1 [N-(4-cyano-3-(oxazol-2-yl)thiophen-2-yl)-2-(2-oxo-6-(trifluoromethyl)quinolin-1(2H)-yl)acetamide],< 0.1,< 0.1,< 0.1

# The remaining lines, values ahead:
IC50 (JNK3) [µM],IC50 (JNK1) [µM],IC50 (JNK2) [µM],SMILES
< 0.1,< 0.1,< 0.1,"O=C(Cc1cccc2cnccc12)Nc1scc(Cl)c1-c1ncn[nH]1 [N-(4-chloro-3-(1H-1,2,4-triazol-5-yl)thiophen-2-yl)-2-(isoquinolin-5-yl)acetamide]"
< 0.1,< 0.1,< 0.1,"Cn1cnc(-c2c(C#N)csc2NC(=O)CN2C(=O)CCc3ncccc32)n1 [N-(4-cyano-3-(1-methyl-1H-1,2,4-triazol-3-yl)thiophen-2-yl)-2-(2-oxo-3,4-dihydro-1,5-naphthyridin-1(2H)-yl)acetamide]"
< 0.1,< 0.1,< 0.1,"Cn1cnc(-c2c(C#N)csc2NC(=O)Cc2cccc3ncccc23)n1 [N-(4-cyano-3-(1-methyl-1H-1,2,4-triazol-3-yl)thiophen-2-yl)-2-(quinolin-5-yl)acetamide]"
< 0.1,< 0.1,< 0.1,"N#Cc1csc(NC(=O)CN2C(=O)CCc3ncccc32)c1-c1nc[nH]n1 [N-(4-cyano-3-(1H-1,2,4-triazol-3-yl)thiophen-2-yl)-2-(2-oxo-3,4-dihydro-1,5-naphthyridin-1(2H)-yl)acetamide]"
< 0.1,< 0.1,< 0.1,"N#Cc1csc(NC(=O)CN2C(=O)CCc3ccccc32)c1-c1ncn[nH]1 [N-(4-cyano-3-(1H-1,2,4-triazol-5-yl)thiophen-2-yl)-2-(2-oxo-3,4-dihydroquinolin-1(2H)-yl)acetamide]"
< 0.1,< 0.1,< 0.1,"N#Cc1csc(NC(=O)Cc2cccc3cnccc23)c1-c1ncn[nH]1 [N-(4-cyano-3-(1H-1,2,4-triazol-5-yl)thiophen-2-yl)-2-(isoquinolin-5-yl)acetamide]"
< 0.1,< 0.1,< 0.1,"N#Cc1csc(NC(=O)Cc2cccc3ncccc23)c1-c1nnc[nH]1 [N-(4-cyano-3-(4H-1,2,4-triazol-3-yl)thiophen-2-yl)-2-(quinolin-5-yl)acetamide]"
